Each block holds one compound with its values, some of them ahead of it. Non-standard residues stand in square brackets, D forms with d. Residues, ends and D or L forms follow the SMILES beside them. *: point of attachment. Acetyl(2-naphthyl) = O=C(Cc1ccc2ccccc2c1)*; Ahx = NCCCCCC(=O)O
Tests used:
[1] = system: RAW264.7 cells; assay: IL-17A uptake mechanism: endocytic pathway inhibitors, 4 °C, NaN3; type: cell-based; conditions: RAW264.7, 0.5 μg/ml IL-17A + 50 μM mixed fi-SRAL and fi-17Abp, 6 h; NaN3 100 mM, CPZ 3 μg/ml, Me-β-CD 0.5 mM, EIPA 20 μM
Method: To evaluate the uptake mechanism of IL-17A, RAW264.7 cells were pretreated with various inhibitors for 30 min at 37 °C: chlorpromazine (clathrin-mediated endocytosis inhibitor, 3 μg/ml), Me-β-cyclodextrin (0.5 mM, lipid rafting pathway inhibitors), EIPA (20 μM, pinocytosis inhibitor). In addition, the cells were cultured at 4 °C or treated with NaN3 (100 mM) to assess the effect of energy on IL-17A uptake. After that, the cells were cultured with fresh medium containing inhibitors at the same concentrations, 50 μM 17Abp and SRAL mixture, and 0.5 μg/ml IL-17A for 6 h. The uptake of the IL-17A by cells was analyzed through flow cytometry according to the procedure mentioned above.
Supplementary Fig. 5 Uptake of IL-17A by macrophages is an energy-dependent process involving several endocytosis pathways. a) Uptake of IL-17A in RAW264.7 cells incubated at 4 °C or pretreated with 100 mM NaN3 for 0.5 h followed by the addition of 0.5 μg/ml IL-17A and 50 μM mixed fi-SRAL and fi-17Abp peptides for 6 h. b) Uptake of IL-17A in RAW264.7 cells incubated with 0.5 mM Me-β-CD (lipid rafting pathway inhibitor), 20 μM EIPA (pinocytosis inhibitor) or 3 μg/ml CPZ (clathrin-endocytosis inhibitor) for 0.5 h followed by the addition of 0.5 μg/ml IL-17A and 50 μM mixed fi-SRAL and fi-17Abp peptides for 6 h. MFI was determined by flow cytometry and the relative MFI was normalized to the control group. Data are presented as the mean ± SD, and error bars represent the standard deviation of biological replicates (n = 3). P values were determined by one-way ANOVA with Tukey’s multiple comparisons test. […]

[2] = system: IMQ-induced psoriasis-like mouse model; assay: IMQ-induced psoriasis mouse model: acanthosis (H&E of back skin); type: in vivo; conditions: day 7, H&E of back skin, IMQ psoriasis BALB/c mice, i.p. 7 days: fm-17Abp 15, fm-SRAL 22, 17A-Lytaca 15+22, control-Lytaca 12+22 mg/kg/day, MTX 1 mg/kg/twice day
Method: 8 to10-week-old female BALB/c mice were purchased from Peking University Health Science Center Department of Laboratory Animal Science. They were randomly divided into seven groups. Vehicle group (PBS administration) was treated with 62.5 mg/day of Vaseline cream while the other six groups were treated with 62.5 mg/day of 5% IMQ cream (Sichuan Med-shine Pharmaceuticals) on the shaved back skin (2 cm × 3 cm) of mice (days 1–7).
The psoriasis area and severity index (PASI) consists of measurements of skin erythema, scale, and thickness. They were scored independently on a scale of 0–4: 0, none; 1, slight; 2, moderate; 3, marked; 4, very marked. The cumulative PASI score was obtained by adding the 3 index scores (scores of 0–12). The thickness of the mouse skin was measured using a micrometer, and the average value was measured three times a day. For histopathology analysis, tissues from the euthanized animals were fixed in formalin and embedded in paraffin. Sections (5 μm thickness) were stained with H&E.

[3] = target: T1, IL-17A (Mus musculus, UniProt Q62386); assay: IL-17A protein level in skin lesion (ELISA); type: in vivo; conditions: i.p. 7 days: fm-17Abp 15, fm-SRAL 22, 17A-Lytaca 15+22, control-Lytaca 12+22 mg/kg/day, MTX 1 mg/kg/twice day
T1 sequence (Q62386 26-158): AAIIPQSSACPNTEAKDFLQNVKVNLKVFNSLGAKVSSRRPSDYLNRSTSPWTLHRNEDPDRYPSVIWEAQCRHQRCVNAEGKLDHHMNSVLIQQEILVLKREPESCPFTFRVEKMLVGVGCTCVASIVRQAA
Method: Plasma cytokine concentrations of IL-17A, IL-6, IL-22, and CCL-20 were determined by a commercial ELISA kit (Dogesce). For skin IL-17A detection, the back skin of mice was isolated and triturated with a grinder (Tiss-24, Jing Xin). Cell debris was precipitated via centrifugation (1000×g, 4 °C, 15 min), and IL-17A was measured in the supernatant using the IL-17A ELISA kit (Dogesce) and normalized to the total protein concentration, which was determined via BCA assay.

[4] = target: T2, PD-L1 (Mus musculus, UniProt Q9EP73); assay: Western blot of PD-L1 in RAW264.7 cells; type: cell-based; conditions: Suppl Fig.18c, 50 μM, PBS = 100
T2 construct: endogenous in cells; host or cells: RAW264.7 (WT and SR-A-KO)
Method: Proteins were extracted using RIPA buffer (Beyotime) supplemented with protease inhibitors (Beyotime) and quantified using the BCA assay (Solarbio). SDS–PAGE was performed to separate proteins, which were then transferred to PVDF membranes (EMD Millipore). Next, the membranes were blocked in 5% fat-free milk for 2 h and incubated with primary antibodies at 4 °C overnight. including Rabbit anti-GAPDH antibody (1:5000, ab181602, Abcam), Mouse anti-GAPDH antibody (1:5000, 60004-1-Ig, Proteintech), Rabbit anti-CD2O4 antibody (1:1000, ab151707, Abcam), Mouse anti-PD-L1antibody (1:1000, 66248-1-Ig, Proteintech), Mouse anti-His-Tag antibody (1:2000, CW0286, CoWin Biosciences), Phospho-p44/42 MAPK (Erk1/2) (Thr202/Tyr204) (D13.14.4E) XP® Rabbit mAb, (1:1000, 4370T, Cell Signaling Technology), p44/42 MAPK (Erk1/2) (137F5) Rabbit mAb (1:1000 4695T, Cell Signaling Technology). After washing the membranes three times, secondary antibodies including HRP-conjugated Affinipure Goat Anti-Mouse IgG(H + L) (1:5000, SA00001-1, Proteintech), HRP-conjugated Affinipure Goat Anti-Rabbit IgG(H + L) (1:5000, SA00001-2, Proteintech) labeled with horseradish peroxidase (Proteintech) were applied at room temperature for 2 h and the immunoreactivity was visualized by supper ECL western blotting substrate (Coolaber). The densitometric analysis was performed by ImageJ software (NIH).

[5] = target: T3, SR-A (Mus musculus, UniProt P30204); assay: SR-A inhibition assay with poly I / poly C (IL-17A uptake); type: cell-based; conditions: RAW264.7, with exogenous IL-17A and the peptide mixture
T3 construct: endogenous in cells; host or cells: RAW264.7
T3 sequence (P30204 1-458): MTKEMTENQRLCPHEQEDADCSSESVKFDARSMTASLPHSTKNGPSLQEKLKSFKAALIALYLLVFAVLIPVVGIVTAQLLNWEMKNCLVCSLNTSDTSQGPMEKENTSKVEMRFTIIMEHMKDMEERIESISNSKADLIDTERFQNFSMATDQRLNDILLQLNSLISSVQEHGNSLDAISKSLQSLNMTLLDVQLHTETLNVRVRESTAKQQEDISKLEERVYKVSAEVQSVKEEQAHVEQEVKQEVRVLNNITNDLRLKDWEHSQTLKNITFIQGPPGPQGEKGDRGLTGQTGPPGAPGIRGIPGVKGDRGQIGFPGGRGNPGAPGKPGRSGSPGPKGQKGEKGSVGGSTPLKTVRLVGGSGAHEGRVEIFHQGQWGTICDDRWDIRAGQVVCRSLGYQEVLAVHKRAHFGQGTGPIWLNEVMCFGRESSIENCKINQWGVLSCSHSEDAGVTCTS
Method: To verify the involvement of SR-A in the IL-17A endocytosis, RAW264.7 cells were treated with the SR-A inhibitor Poly I or the control Poly C at the indicated concentration together with the 50 μM 17Abp and SRAL mixture and 0.5 μg/ml IL-17A for 6 h. Then, flow cytometry analysis was used to measure the intracellular IL-17A level according to the procedure mentioned above.

T2 sequence (Q9EP73 19-290): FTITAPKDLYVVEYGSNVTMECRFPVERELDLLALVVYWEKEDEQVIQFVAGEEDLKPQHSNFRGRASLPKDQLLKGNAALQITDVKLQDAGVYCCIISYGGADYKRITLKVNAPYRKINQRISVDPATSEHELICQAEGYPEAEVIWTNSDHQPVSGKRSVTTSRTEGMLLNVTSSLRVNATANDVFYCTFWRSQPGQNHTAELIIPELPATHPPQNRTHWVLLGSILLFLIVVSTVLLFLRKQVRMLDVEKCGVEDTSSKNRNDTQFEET

Compound: CN(C)CCCN1c2ccccc2Sc2ccc(Cl)cc21 [CPZ, chlorpromazine]
Effect of endocytosis/energy inhibitor on IL-17A uptake (in words) [1]: significant decreases in cellular fluorescence

Compound: CCN(c1nc(N)c(C(=O)N=C(N)N)nc1Cl)C(C)C [EIPA, 5-(N-ethyl-N-isopropyl)-amiloride]
Effect of endocytosis/energy inhibitor on IL-17A uptake (in words) [1]: decreased IL-17A uptake

Skin IL-17A ([3]; day 7, animal 1 of n = 5, IMQ psoriasis BALB/c mice): 60.0538 pg/mg protein
Skin IL-17A ([3]; day 7, animal 2 of n = 5, IMQ psoriasis BALB/c mice): 102.2787 pg/mg protein
Skin IL-17A ([3]; day 7, animal 3 of n = 5, IMQ psoriasis BALB/c mice): 103.0959 pg/mg protein
Skin IL-17A ([3]; day 7, animal 4 of n = 5, IMQ psoriasis BALB/c mice): 57.7792 pg/mg protein
Skin IL-17A ([3]; day 7, animal 5 of n = 5, IMQ psoriasis BALB/c mice): 78.3380 pg/mg protein
Compound: CN(Cc1cnc2nc(N)nc(N)c2n1)c1ccc(C(=O)N[C@@H](CCC(=O)O)C(=O)O)cc1 [MTX, methotrexate]
Acanthosis ([2]; animal 1 of n = 5): 66.3 μm
Acanthosis ([2]; animal 2 of n = 5): 89.8 μm
Acanthosis ([2]; animal 3 of n = 5): 73.7 μm
Acanthosis ([2]; animal 4 of n = 5): 59.4 μm
Acanthosis ([2]; animal 5 of n = 5): 85.7 μm

Compound: [N-]=[N+]=[N-].[Na+] [NaN3]
Effect of endocytosis/energy inhibitor on IL-17A uptake (in words) [1]: significantly reduced intracellular fluorescence signals of IL-17A

Compound: C[C@H](NC(=O)[C@H](CCC(=O)O)NC(=O)[C@H](C)NC(=O)[C@H](CCC(=O)O)NC(=O)[C@H](C)NC(=O)[C@H](CCC(=O)O)NC(=O)[C@H](C)NC(=O)[C@H](CCC(=O)O)NC(=O)[C@H](C)NC(=O)[C@H](CCC(=O)O)NC(=O)[C@H](C)NC(=O)[C@H](CCC(=O)O)NC(=O)[C@H](C)NC(=O)[C@H](CCC(=O)O)NC(=O)[C@H](C)NC(=O)[C@H](CCC(=O)O)NC(=O)[C@H](C)NC(=O)[C@H](CCC(=O)O)NC(=O)[C@H](C)NC(=O)[C@H](CCC(=O)O)NC(=O)[C@H](C)NC(=O)[C@H](CCC(=O)O)NC(=O)[C@H](C)NC(=O)[C@H](CCC(=O)O)NC(=O)[C@H](C)NC(=O)[C@H](CCC(=O)O)NC(=O)[C@H](C)NC(=O)[C@H](CCC(=O)O)NC(=O)[C@H](C)NC(=O)[C@H](CCC(=O)O)NC(=O)CCCCCNC(=O)[C@H](Cc1ccccc1)NC(=O)[C@H](Cc1ccccc1)NC(=O)Cc1ccc2ccccc2c1)C(N)=O [nf-SRAL] ({Acetyl(2-naphthyl)}-FF[Ahx]EAEAEAEAEAEAEAEAEAEAEAEAEAEAEA-NH2)
Relative intensity of PD-L1 ([4]; replicate 1): 96
Relative intensity of PD-L1 ([4]; replicate 2): 106
Relative intensity of PD-L1 ([4]; replicate 3): 102

Compound: methyl-β-cyclodextrin [Me-β-CD]
Effect of endocytosis/energy inhibitor on IL-17A uptake (in words) [1]: significant decreases in cellular fluorescence

Effect on IL-17A uptake efficiency (in words) [5]: no discernible impact
Compound: polycytidylic acid [Poly C]

Effect on IL-17A uptake efficiency (in words) [5]: concentration-dependent inhibition
Compound: polyinosinic acid [Poly I]

Reference: publication PMC10891067, “A co-assembly platform engaging macrophage scavenger receptor A for lysosome-targeting protein degradation” (Nature Communications, 2024)
